Literature values in patent US6432422B1, “Creams containing vitamin D3 derivatives” (Chugai Seiyaku Kabushiki Kaisha, priority 1997, dated 2002).

Columns and labels:
[1] = organic solvents such as ethanol and chloroform

C=C1/C(=C\C=C2/CCC[C@]3(C)[C@@H]([C@H](C)OCCC(C)(C)O)CC[C@@H]23)C[C@@H](O)C[C@@H]1O [Maxacalcitol, 1α,3β-dihydroxy-20α-(3-hydroxy-3-methylbutyloxy)-9,10-seco-5,7,10(19)-pregnatriene]
effects on epidermal cells (epidermal cells): epidermal cell growth-inhibiting and differentiation-inducing effects | stability in aqueous solutions (aqueous solutions): unstable in aqueous solutions | stability in base materials (base materials such as petrolatum): very high stability | solubility in organic solvents [1]: highly soluble | stability in organic solvents [1]: dramatically improved stability | solubility in water (water): scarcely soluble in water
